From the NIST ThermoML archive (doi:10.1021/je060271a)

Settings: 323.15 K, Liquid, Vibrating tube method

CCCCC(=O)OCC(COC(=O)CCCC)(COC(=O)CCCC)COC(=O)CCCC [pentaerythritol tetrapentanoate]
Settings	mass density [kg/m3]
5507 kPa	998.5
5515.1 kPa	998.5
5521.3 kPa	998.4
5527 kPa	998.5
5546.7 kPa	998.6
5564 kPa	998.6
5581.9 kPa	998.5
5599.5 kPa	998.6
5620.8 kPa	998.5
5638.1 kPa	998.7
5660 kPa	998.6
5678.2 kPa	998.6
5695.6 kPa	998.6
5714.3 kPa	998.7
5736.6 kPa	998.6
5755.1 kPa	998.7
5774.3 kPa	998.6
5797.1 kPa	998.8
5816.3 kPa	998.9
5836 kPa	998.8
5854.9 kPa	998.8
5878.6 kPa	998.8
5898.5 kPa	998.8
5917.1 kPa	998.8
5937.2 kPa	998.9
5961 kPa	998.8
5982 kPa	998.9
6002.4 kPa	998.9
6023.3 kPa	998.8
6048 kPa	998.8
6068.6 kPa	999
6091.7 kPa	998.8
6114.3 kPa	999
6135.5 kPa	998.8
6162.7 kPa	998.9
6183.1 kPa	998.9
6205.3 kPa	999
6226.8 kPa	999.1
6253.6 kPa	999.1
6278.3 kPa	999
6299 kPa	999
6322 kPa	999.1
6349.8 kPa	999.1
6371.6 kPa	999.1
6395.8 kPa	999.1
6420.4 kPa	999
6446 kPa	999.2
6472.8 kPa	999.2
6495.8 kPa	999.3
6521.7 kPa	999.2
6549.3 kPa	999.2
6572.1 kPa	999.2
6596.7 kPa	999.3
6622.6 kPa	999.3
6652.8 kPa	999.2
6676.5 kPa	999.3
6703.4 kPa	999.2
6735.7 kPa	999.4
6761.8 kPa	999.4
6788.6 kPa	999.5
6816.1 kPa	999.4
6841.8 kPa	999.4
6873.6 kPa	999.5
6900.5 kPa	999.4
6928.9 kPa	999.6
6961.3 kPa	999.6
6989.5 kPa	999.5
7017 kPa	999.6
7044.4 kPa	999.4
7079.5 kPa	999.6
7110.4 kPa	999.7
7137.5 kPa	999.7
7169.3 kPa	999.6
7204.5 kPa	999.8
7233.8 kPa	999.7
7265.1 kPa	999.7
7295.5 kPa	999.8
7332.3 kPa	999.8
7362 kPa	999.7
7393.2 kPa	999.8
7425.1 kPa	999.9
7462.4 kPa	999.8
7497 kPa	1000
7529.6 kPa	999.9
7562.2 kPa	999.9
7602.1 kPa	1000
7634.4 kPa	999.9
7668.9 kPa	1000
7702.7 kPa	1000
7742.2 kPa	1000
7778.3 kPa	1000.1
7818.5 kPa	1000.1
7854.9 kPa	1000.1
7890.7 kPa	1000.1
8008.7 kPa	1000.2
8045.6 kPa	1000.3
8085.8 kPa	1000.3
8132.2 kPa	1000.2
8166 kPa	1000.4
8197.3 kPa	1000.4
8234.5 kPa	1000.4
8265.2 kPa	1000.4
8297.6 kPa	1000.5
8334.6 kPa	1000.5
8366.3 kPa	1000.6
8398.2 kPa	1000.5
8437.2 kPa	1000.5
8471.2 kPa	1000.5
8502.6 kPa	1000.5
8536.2 kPa	1000.6
8575.9 kPa	1000.5
8609.5 kPa	1000.6
8644.9 kPa	1000.7
8686.6 kPa	1000.7
8721.6 kPa	1000.7
8763.3 kPa	1000.7
8798.5 kPa	1000.8
8835.2 kPa	1000.8
8871.2 kPa	1000.7
8918.5 kPa	1000.9
8948.2 kPa	1000.9
8992.3 kPa	1000.9
9029 kPa	1000.9
9074.5 kPa	1000.9
9112.8 kPa	1001
9150.4 kPa	1001.1
9188.8 kPa	1001.1
9235.3 kPa	1001
9275.3 kPa	1001.2
9315.5 kPa	1001.1
9364.1 kPa	1001.1
9405.6 kPa	1001.2
9494 kPa	1001.2
9537.2 kPa	1001.2
9589.3 kPa	1001.2
9624.3 kPa	1001.3
9656.6 kPa	1001.3
9695.6 kPa	1001.3
9727.6 kPa	1001.5
9873 kPa	1001.5
9976.5 kPa	1001.6
10018 kPa	1001.6
10129 kPa	1001.8
10165 kPa	1001.7
10208 kPa	1001.8
10280 kPa	1001.7
10325 kPa	1001.8
10362 kPa	1001.9
10400 kPa	1001.9
10447 kPa	1001.9
10486 kPa	1001.9
10527 kPa	1002
10577 kPa	1001.8
10620 kPa	1002.1
10661 kPa	1002
10691 kPa	1002.1
10711 kPa	1002.1
10731 kPa	1002.2
10755 kPa	1002.1
10775 kPa	1002
